# Results from US8084457B2, “Pharmaceutically active 4,6-disubstituted aminopyrimidine derivatives as modulators of protein kinases” (Lead Discovery Center GmbH, priority 2003, dated 2011).
# Key:
# CDK2/CyclinA = biological target: T1, CDK2/CyclinA (Homo sapiens, UniProt P24941); assay: Kinase assay determining CDK2/CyclinA activity; assay type: biochemical
# T1 construct: purchased Proqinase
# Procedure: Kinase Assays Determining CDK2/CyclinA and CDK5/p35 Activity:
# Kinase assays were performed as described by the manufacturers recommendations (Proqinase for CDK2/CyclinA and Upsate for CDK5/p35).
# PM1 cells = assay: Growth assay using Alamar Blue; assay type: cell-based
# Procedure: Growth Assay Using Alamar Blue™:
# PM1 cells were seeded in 12-well plates at a density of 1.5×10^5 per well with RPMI 1640 containing 10% FCS (fetal calf serum), 1% L-Glutamine and 1% Na-Pyruvate (Sigma). Cells were incubated with compound for 2-3 days (37° C., 6% CO2) followed by subsequent splitting and renewing of compound-containing medium. At each of these time points an aliquot of cells served as data point for relative growth (given in % of the DMSO control [=100%]). The cell number was determined by addition of 10 μL Alamar Blue™ (Biozol) to 100 μL cell aliquots following the manufacturer's instructions.
# c-Src = c-Src (Homo sapiens, UniProt P12931); assay: General kinase assay, selectivity panel: c-Src; assay type: biochemical; conditions: 10 μM of compound, in comparison to DMSO (0% inhibition)
# Procedure: (§1) The inhibitory effect of compounds according to the present invention on the activity of protein kinases, depicted in Table 1, can be measured according to the following protocol:
# (§2) Pipettinq Sequence: • 1) Add 10 μl 4 fold concentrated Substrate+4 fold concentrated ATP in 3 fold concentrated Reaction Buffer to each well of Assay Plate • 2) Add 10 μl 4 fold concentrated inhibitor in 4% DMSO in H2O to each well except to C− and C+ wells • 3) Add 10 μl 4% DMSO in H2O to C− and C+ wells • 4) Add 10 μl 500 mM EDTA in H2O to − wells • 5) Add 10 μl 50 μCi/ml Adenosine 5′-[γ-^33P]triphosphate in H2O to each well • 6) Add 10 μl 4 fold concentrated kinase in Reaction Buffer to each well • 7) Incubate 1 hr at room temperature • 8) Add 10 μl 50 mM EDTA in H2O to each well except to C− wells • 9) Prepare MAPH plates by adding 200 μl 0.75% H3PO4 to each well • 10) Exhaust 0.75% H3PO4 using Millipore vacuum station • 11) Add 60 μl 0.75% H3PO4 to each well of MAPH Filter Plate • 12) Transfer 30 μl sample per well from Assay Plate to corresponding well of MAPH Filter Plate • 13) Incubate 30 min at room temperature • 14) Wash each well of MAPH Filter Plates 3× with 200 μl 0.75% H3PO4 using Millipore vacuum station. • 15) Add 20 μl Scintillation Liquid to each well of MAPH Filter Plate • 16) Seal MAPH Filter Plate • 17) Store MAPH Filter Plate 30 min in darkness • 18) Quantify radioactivity
# (§3) The activity of these protein kinases is depicted as % inhibition in the presence of 10 μM of compound in comparison to DMSO (0% inhibition).
# cMet = cMet (Homo sapiens, UniProt P08581); assay: General kinase assay, selectivity panel: cMet; assay type: biochemical; conditions: 10 μM of compound, in comparison to DMSO (0% inhibition)
# Procedure: as §1, §2, §3
# EGFR = EGFR (Homo sapiens, UniProt P00533); assay: General kinase assay, selectivity panel: EGFR; assay type: biochemical; conditions: 10 μM of compound, in comparison to DMSO (0% inhibition)
# Chain of EGFR (P00533 25-1210, species assumed): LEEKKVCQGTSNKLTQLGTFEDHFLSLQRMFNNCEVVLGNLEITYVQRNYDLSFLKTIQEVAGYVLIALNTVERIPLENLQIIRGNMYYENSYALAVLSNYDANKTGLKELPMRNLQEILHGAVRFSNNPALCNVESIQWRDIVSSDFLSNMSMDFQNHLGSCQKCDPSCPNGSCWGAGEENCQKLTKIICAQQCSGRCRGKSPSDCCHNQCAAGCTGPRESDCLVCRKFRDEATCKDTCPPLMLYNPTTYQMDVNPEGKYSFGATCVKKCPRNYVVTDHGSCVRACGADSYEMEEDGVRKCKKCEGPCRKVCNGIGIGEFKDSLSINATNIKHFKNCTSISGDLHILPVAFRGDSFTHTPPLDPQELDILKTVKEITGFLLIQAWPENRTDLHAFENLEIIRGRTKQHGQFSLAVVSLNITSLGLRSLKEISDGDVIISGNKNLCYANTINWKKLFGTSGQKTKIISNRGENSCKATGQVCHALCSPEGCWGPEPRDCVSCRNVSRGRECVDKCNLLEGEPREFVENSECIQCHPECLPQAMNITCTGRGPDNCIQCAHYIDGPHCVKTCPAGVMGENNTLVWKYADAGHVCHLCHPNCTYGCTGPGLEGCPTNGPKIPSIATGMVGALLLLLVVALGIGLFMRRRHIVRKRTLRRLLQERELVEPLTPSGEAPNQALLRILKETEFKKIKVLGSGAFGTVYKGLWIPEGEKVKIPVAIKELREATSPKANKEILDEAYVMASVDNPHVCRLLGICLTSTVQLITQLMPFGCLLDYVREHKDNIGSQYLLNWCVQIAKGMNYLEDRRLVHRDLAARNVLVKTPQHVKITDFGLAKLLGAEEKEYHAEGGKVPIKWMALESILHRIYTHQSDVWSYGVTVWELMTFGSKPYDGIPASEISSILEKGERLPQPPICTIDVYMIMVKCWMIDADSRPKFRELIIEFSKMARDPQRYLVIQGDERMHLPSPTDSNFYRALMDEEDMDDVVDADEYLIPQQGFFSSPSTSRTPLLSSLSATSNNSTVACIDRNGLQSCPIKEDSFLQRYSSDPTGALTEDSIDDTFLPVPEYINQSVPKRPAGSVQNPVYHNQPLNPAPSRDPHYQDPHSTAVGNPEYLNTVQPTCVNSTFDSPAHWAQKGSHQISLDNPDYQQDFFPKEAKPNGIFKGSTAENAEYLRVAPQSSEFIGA
# In short: (§4)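 Inhibition by 10 μM compound, expressed relative to DMSO as 0%, comes from a 33P-ATP kinase reaction (1 hr, room temperature) quenched with EDTA. Phosphorylated substrate is bound to filters, rinsed in 0.75% H3PO4, and read by scintillation.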
# [1] = system: CDK9-dependent phosphorylation of RNA-polymerase II; assay: Determination of RNA polymerase II C-terminal domain phosphorylation (western blot, PM1 cells); assay type: cell-based
# Procedure: Determination of RNA Polymerase II C-terminal Domain Phosphorylation: The phosphorylation status of RNA polymerase II C-terminal domain was determined by western blot techniques. PM1 cells were seeded in 6-well plates at a density of 5×10^5 per well. After over night incubation cells were treated with compound as indicated in the respective experiments. Cells were pelleted and lysed with 300 μL 3× Laemmli buffer followed by 30 min denaturing at 65° C. After separation of equal lysate volumes by SDS-PAGE the proteins were transferred to nitrocellulose membranes (Schleicher&Schuell) and probed with anti-[…] (H5), anti-[…] (H14) or RNA Poll II-antibodies purchased from Eurogentec and Santa Cruz, respectively. The amount of reactive protein was visualized by ECL detection methods (Amersham). In order to see, if the compounds according to the general formula (I) do have the intrinsic capacity to penetrate cells and act against cellular target proteins, especially CDK9, the effect of Compound 30 on CDK9-dependent phosphorylation of RNA-polymerase II was investigated.
# [2] = system: NFκB-dependent transcriptional activity; assay: NFκB-dependent transcriptional activity (NIH 3T3 75E 11/300D8 cell line); assay type: cell-based
# Text: NFκB-dependent Transcriptional Activity:
# The used NIH 3T3 75E 11/300D8 cell line is described elsewhere (J. Eickhoff et al., Journal of Biological Chemistry, 2004, 279(10), 9642-9652).
# It is known, that CDK9 regulates the NFκB-dependent transitional activity. With Compound 4, Compound 7 and Compound 30 studies were done, to evaluate their effect on NFκB-dependent transcriptional activity.
# CDK1 = CDK1 (Homo sapiens, UniProt P06493); assay: General kinase assay, selectivity panel: CDK1; assay type: biochemical; conditions: 10 μM of compound, in comparison to DMSO (0% inhibition)
# Chain of CDK1 (P06493 whole entry, species assumed): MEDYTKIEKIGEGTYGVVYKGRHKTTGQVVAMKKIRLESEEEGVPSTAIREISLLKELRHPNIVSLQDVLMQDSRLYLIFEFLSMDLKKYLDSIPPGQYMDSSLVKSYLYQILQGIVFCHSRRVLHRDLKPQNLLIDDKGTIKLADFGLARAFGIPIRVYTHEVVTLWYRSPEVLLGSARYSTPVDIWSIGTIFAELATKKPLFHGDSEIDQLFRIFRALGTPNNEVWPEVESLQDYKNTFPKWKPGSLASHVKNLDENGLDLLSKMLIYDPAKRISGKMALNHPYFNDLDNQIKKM
# Chain of CDK1 (P14635 whole entry partner, species assumed): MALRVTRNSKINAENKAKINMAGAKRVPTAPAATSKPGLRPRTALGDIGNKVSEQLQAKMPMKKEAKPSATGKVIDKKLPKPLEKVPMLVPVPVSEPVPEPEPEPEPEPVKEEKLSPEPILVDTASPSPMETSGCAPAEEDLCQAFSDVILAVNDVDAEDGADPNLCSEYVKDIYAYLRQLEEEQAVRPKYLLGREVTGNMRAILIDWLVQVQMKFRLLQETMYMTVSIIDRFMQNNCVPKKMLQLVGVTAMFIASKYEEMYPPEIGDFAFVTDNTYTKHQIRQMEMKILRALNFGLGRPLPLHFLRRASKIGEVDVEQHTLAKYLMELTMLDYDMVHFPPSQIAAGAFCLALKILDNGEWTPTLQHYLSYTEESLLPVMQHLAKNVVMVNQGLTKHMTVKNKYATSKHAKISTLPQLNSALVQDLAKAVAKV
# In short: as §4
# PDGFR = assay: General kinase assay, selectivity panel: PDGFR; assay type: biochemical; conditions: 10 μM of compound, in comparison to DMSO (0% inhibition)
# In short: as §4
# HCMV strain AD169 = assay: HCMV replication assay in HFF cells (EGFP); assay type: cell-based; conditions: strain AD 169 in HFF cells
# Procedure: Human foreskin fibroblasts (HFF) cell culture were grown in DMEM containing 10% FCS. For HCMV-replication assays, HFF cells were infected with HCMV strain AD169 producing EGFP (HCMV AD169-GFP; 27). 1 h post infection, medium was changed with medium containing the indicated compound concentration (0.3 μM, 1 μM and 3 μM, respectively) After incubation of 7 days cells were lysed (in 25 mM Tris, pH 7.5, 2 mM DTT, 1% Triton X-100 and 10% glycerol) and analysed for EGFP content in a Wallac Victor fluorescence detector.
# HBV = HBV replication assay in HepG2-2.2.15 cells; assay type: cell-based
# Procedure: To test anti—HBV-activity of compounds the HBV-producing cell line HepG2-2.2.15 (M. A. Sells, PNAS 1987, 84, 1005-1009) was used. 1.0×10^4 cells were seeded in 96-well microtiter plates in DMEM medium supplemented with 10% FCS. After incubation at 37° C. in 5% CO2 atmosphere for 24 hours the medium was replaced with fresh medium containing the appropriately diluted compound. 3 days later medium was replaced by freshly prepared inhibitor-containing medium and the cells were incubated for further 3 days. Subsequently 200 μl lysis buffer (50 mM Tris-Cl 7.5; 1 mM EDTA 8.0; 0.5% NP40) per well was added. To remove cell debris and […], lysate was centrifuged (15000 rpm, 10 min, 4° C.). Cellular and viral RNA was removed by addition of 2 μl of RNase. 100 μl of the samples were spotted onto an uncharged nylon membrane pre-wetted with PBS (phosphate-buffered saline) using a 96 well-blotting chamber (MINIfold Dot-Blot, Schleicher&Schüll). After further washing with 200 μl PBS per well the membrane was treated twice with 0.5 M NaOH, 1.5 M NaCl (2 min) and 4 times with 0.5 M Tris 7.5, 3 M NaCl (1 min). The nucleic acids were fixed by UV-treatment and used for hybridisabon with a radioactive HBV-fragment prepared from the overgenome-length HBV-plasmid pT-HBV1.3 (L. G. Guidotti et al., Journal of Virology 1995., 69(10), 6158-6169).
# The fixed membrane was pre-hybridized in a standard hybridisation buffer (50% formamide, 5×SSPE, 10×Denhards, 1% SDS, 100 μg/ml salmon sperm DNA) for at least 3 hours at 42° C. and hybridised overnight against the labelled HBV-fragment. The preparation of the HBV-fragment with the “Random primers DNA labelling system” (Invitrogen) was done according to the manufacturer's instructions. Hybridized filter were washed at room temperature with 2×SSC, at 62° C. with 2×SSC, 0.5% SDS and at 62° C. with 0.5×SSC, 0.5% SDS. Each washing step was carried out twice. The intensity of the HBV-DNA was quantified using a phosphoimager (Fuji). […] Absorbance was monitored at 570 nm and 600 nm wavelength.
# Abl = Abl (Homo sapiens, UniProt P00519); assay: General kinase assay, selectivity panel: Abl; assay type: biochemical; conditions: 10 μM of compound, in comparison to DMSO (0% inhibition)
# In short: as §4
# GSK-3β = GSK-3β (Homo sapiens, UniProt P49841); assay: General kinase assay, selectivity panel: GSK-3β; assay type: biochemical; conditions: 10 μM of compound, in comparison to DMSO (0% inhibition)
# Chain of GSK-3β (P49841 whole entry, species assumed): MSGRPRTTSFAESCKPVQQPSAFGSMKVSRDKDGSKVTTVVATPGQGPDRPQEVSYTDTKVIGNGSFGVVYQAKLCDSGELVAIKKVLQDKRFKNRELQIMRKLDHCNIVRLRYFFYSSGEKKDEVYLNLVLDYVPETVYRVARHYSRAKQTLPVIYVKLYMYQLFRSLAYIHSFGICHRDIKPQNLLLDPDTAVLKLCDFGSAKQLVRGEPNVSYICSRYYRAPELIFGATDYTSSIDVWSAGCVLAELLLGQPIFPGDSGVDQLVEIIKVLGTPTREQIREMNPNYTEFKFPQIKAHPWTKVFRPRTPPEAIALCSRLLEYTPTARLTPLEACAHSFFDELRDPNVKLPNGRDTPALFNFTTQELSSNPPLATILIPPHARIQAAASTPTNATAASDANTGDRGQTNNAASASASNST
# In short: as §4
# p56 Lck = p56 Lck (Homo sapiens, UniProt P06239); assay: General kinase assay, selectivity panel: p56 Lck; assay type: biochemical; conditions: 10 μM of compound, in comparison to DMSO (0% inhibition)
# Chain of p56 Lck (P06239 whole entry): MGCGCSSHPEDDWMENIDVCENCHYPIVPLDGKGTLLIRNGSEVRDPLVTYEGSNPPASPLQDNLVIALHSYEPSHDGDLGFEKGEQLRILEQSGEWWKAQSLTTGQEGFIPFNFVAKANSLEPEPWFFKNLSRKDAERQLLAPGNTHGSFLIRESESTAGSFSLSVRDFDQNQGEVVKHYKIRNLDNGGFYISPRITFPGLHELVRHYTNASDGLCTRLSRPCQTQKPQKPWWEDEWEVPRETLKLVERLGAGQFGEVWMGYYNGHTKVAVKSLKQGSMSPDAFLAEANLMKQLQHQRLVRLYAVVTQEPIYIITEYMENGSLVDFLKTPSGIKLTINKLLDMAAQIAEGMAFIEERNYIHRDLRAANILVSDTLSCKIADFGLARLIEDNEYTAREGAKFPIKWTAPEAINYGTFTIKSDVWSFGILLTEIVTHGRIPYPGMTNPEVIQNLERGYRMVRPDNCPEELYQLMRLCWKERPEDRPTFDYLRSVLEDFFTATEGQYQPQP
# In short: as §4
# c-Kit = c-Kit (Homo sapiens, UniProt P10721); assay: General kinase assay, selectivity panel: c-Kit; assay type: biochemical; conditions: 10 μM of compound, in comparison to DMSO (0% inhibition)
# Chain of c-Kit (P10721 26-976): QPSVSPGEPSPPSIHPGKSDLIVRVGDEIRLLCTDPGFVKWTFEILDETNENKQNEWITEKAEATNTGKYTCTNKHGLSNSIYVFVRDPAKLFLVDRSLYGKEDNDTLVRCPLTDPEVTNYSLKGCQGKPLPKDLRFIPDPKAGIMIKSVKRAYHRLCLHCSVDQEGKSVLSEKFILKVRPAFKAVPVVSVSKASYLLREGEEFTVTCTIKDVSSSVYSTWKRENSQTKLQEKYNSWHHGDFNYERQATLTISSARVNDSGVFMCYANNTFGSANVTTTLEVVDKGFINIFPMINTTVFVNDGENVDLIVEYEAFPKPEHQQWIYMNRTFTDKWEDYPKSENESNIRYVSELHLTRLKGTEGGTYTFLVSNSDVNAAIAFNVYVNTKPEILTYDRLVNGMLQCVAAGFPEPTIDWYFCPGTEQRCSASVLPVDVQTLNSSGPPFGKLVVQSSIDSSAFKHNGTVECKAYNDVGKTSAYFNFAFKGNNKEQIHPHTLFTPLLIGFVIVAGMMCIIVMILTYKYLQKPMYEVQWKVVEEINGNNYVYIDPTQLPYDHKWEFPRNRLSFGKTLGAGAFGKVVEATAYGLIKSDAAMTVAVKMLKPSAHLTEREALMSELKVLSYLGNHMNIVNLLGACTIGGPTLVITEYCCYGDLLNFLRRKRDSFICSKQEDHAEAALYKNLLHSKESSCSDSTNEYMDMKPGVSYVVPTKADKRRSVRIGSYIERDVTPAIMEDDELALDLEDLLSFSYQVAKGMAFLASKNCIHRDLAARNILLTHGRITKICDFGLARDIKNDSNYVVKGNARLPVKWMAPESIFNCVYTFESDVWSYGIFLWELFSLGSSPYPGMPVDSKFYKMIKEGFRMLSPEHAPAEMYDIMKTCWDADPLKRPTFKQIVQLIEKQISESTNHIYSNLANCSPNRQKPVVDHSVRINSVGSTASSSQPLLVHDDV
# In short: as §4
# RSK1 = RSK1 (Homo sapiens, UniProt Q15418); assay: General kinase assay, selectivity panel: RSK1; assay type: biochemical; conditions: 10 μM of compound, in comparison to DMSO (0% inhibition)
# Chain of RSK1 (Q15418 whole entry, species assumed): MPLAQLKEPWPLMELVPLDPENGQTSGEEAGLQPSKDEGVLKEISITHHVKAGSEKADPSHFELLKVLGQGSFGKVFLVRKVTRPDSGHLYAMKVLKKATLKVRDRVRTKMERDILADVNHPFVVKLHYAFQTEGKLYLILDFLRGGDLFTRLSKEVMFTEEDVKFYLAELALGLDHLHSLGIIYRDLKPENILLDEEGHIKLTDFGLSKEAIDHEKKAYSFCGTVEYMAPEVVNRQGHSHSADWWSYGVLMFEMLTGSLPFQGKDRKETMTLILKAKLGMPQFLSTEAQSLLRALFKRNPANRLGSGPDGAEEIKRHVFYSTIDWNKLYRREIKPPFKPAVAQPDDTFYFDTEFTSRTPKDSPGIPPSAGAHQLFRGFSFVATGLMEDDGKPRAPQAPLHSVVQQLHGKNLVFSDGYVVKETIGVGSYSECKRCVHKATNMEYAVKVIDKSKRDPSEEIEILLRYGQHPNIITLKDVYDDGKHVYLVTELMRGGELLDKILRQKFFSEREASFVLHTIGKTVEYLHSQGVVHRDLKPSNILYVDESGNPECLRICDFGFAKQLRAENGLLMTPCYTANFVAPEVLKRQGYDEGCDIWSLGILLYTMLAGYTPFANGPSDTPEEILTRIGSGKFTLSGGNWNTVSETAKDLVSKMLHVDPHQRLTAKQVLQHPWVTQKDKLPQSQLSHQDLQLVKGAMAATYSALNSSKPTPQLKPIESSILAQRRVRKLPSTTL
# Procedure: as §1, §2, §3
SMILES,CDK2 inhibition (in words) (CDK2/CyclinA),effect on growth of PM1 cells (in words) (PM1 cells),c-Src (% inhibition) (c-Src),cMet (% inhibition) (cMet),EGFR (% inhibition) (EGFR),molecular weight of RNA polymerase II [1],serine 2 phosphorylation of RNA polymerase II ([1]; anti-SER2 (H5)),serine 5 phosphorylation of RNA polymerase II ([1]; anti-SER5 (H14)),"TNF-α stimulated NFκB-dependent promoter activity ([2]; 1 μM final concentration, TNF-α stimulated)",NFκB-dependent promoter activity under non-stimulated conditions ([2]; non-stimulated conditions),EC50 ([2]; titration),CDK1 (% inhibition) (CDK1),PDGFR (% inhibition) (PDGFR),HCMV replication (in words) (HCMV strain AD169),HBV replication (in words) (HBV),Abl (% inhibition) (Abl),GSK-3β (% inhibition) (GSK-3β),p56 Lck (% inhibition) (p56 Lck),c-Kit (% inhibition) (c-Kit),RSK1 (% inhibition) (RSK1)
COC(=O)CN(c1ccc(Nc2cc(-c3ccccc3OC)ncn2)cc1)S(=O)(=O)c1ccc(C)cc1 [Compound 28],tendency to inhibit potently,affect severely,,,,,,,,,,,,,,,,,,
COc1ccccc1-c1cc(Nc2ccc(NC(=O)[C@@H]3CCCCN3)cc2)ncn1 [Compound 30],,,b (inhibition between 80 and 50%: b),c (inhibition between 50 and 30%: c),a (inhibition greater than 80%: a),reduction,decreased,did not show any differences,"able, to affect",no inhibition was observed,~1 µM,a (inhibition greater than 80%: a),c (inhibition between 50 and 30%: c),showed inhibition,inactive,b (inhibition between 80 and 50%: b),c (inhibition between 50 and 30%: c),b (inhibition between 80 and 50%: b),b (inhibition between 80 and 50%: b),
COc1ccccc1-c1cc(Nc2ccc(N3CCCC3=O)cc2)ncn1 [Compound 9],tendency to inhibit potently,affect severely,,,b (inhibition between 80 and 50%: b),,,,,,,a (inhibition greater than 80%: a),c (inhibition between 50 and 30%: c),,,,b (inhibition between 80 and 50%: b),b (inhibition between 80 and 50%: b),c (inhibition between 50 and 30%: c),c (inhibition between 50 and 30%: c)
